Values after ≈ are worked out from the molar mass of the structure shown.
Assays:
[1] = DPPH free radical scavenging assay; settings: at 50 μg/mL
Procedure: The DPPH assay was executed via the technique stated by ([Bibi et al., 2011]). DPPH(Diphenyl-1-picrylhydrazyl), a free radical, is bagged to inquire about the antioxidant ability of the synthesized compounds. 10 μL from the synthesized compound (1 mg/mL DMSO) is added to 190 μL DPPH solution., making up the final conc. of 50 μg/mL.
DPPH assay was repeated in triplicate using DMSO as -ve and ascorbic acid as + ve control; findings are expressed as means standard deviation.
It is one of the very commonly utilized methods for the assessment of the antioxidant ability of compounds. DPPH turns from purple to yellow, which indicates the synthetic compound’s scavenging potential ([Rahman et al., 2017]). DMSO and A.A. were used as -ve and +ve control. The antioxidant potential of compounds was assessed at 50 μg/mL, 25 μg/mL, 12.5 μg/mL, and 6.25 μg/mL. […] Production of free radicals is an outcome of regular oxygen consumption in the body; whenever something is missing with the natural antioxidant mechanism, the accumulation of these free radicals may lead to cytotoxic interaction with the body systems and may cause damage to genomic content of various cells, and proteins in the body ([Barbuceanu et al., 2014]). Free radical accumulation is also associated with different diseases, e.g., coronary heart disease, neuronic disorders, diabetes, necrosis, and various tumors ([Ismaili.et al., 2008]). The antioxidant potential of the compound depends upon its reducing power; the introduction of hydroxy and methoxy groups on the Benzene ring led to better reducing power or promising antioxidant activity ([Rakesh et al., 2015]).

[2] = test system: Escherichia coli (ATCC-25922); assay: Antibacterial assay, micro broth dilution; assay type: cell-based; settings: ATCC25922, read-out: E. coli MIC
Description: (§1) The micro broth dilution method was used to establish the antibacterial potential of test samples against Staphylococcus aureus (ATCC-6538), Bacillus subtilis (ATCC-6633), Escherichia coli (ATCC-25922), Klebsiella pneumoniae (ATCC-1705), and Pseudomonas aeruginosa (ATCC-15442) and for the resistant strains of MRSA Staphylococcus aureus, P. aeruginosa and Escherichia coli. The procedure used is described by ([Sarker et al., 2007]). Bacterial inoculum was formed under aseptic conditions keeping the density near 5 × 10^4 CFU/mL in pre-autoclaved nutrient broth. Test samples of an aliquot of 5 µL were shifted to labeled wells of 96 well plates, and after that addition of 195 µL of nutrient broth; was accomplished. After that, a 2-fold serial dilution of every sample was arranged to get final concentrations of 12.5 μg/mL. Then, with the help of a micropipette, 195 µL of bacterial culture of respective strains was poured into each well; further advancement was incubating of plates for 30 min at the temperature of 37°C. […] Incubation of plates was again carried out at 37°C for 1 day, absorbance was noted, and net change in turbidity was the difference between two values of absorbance.
(§2) Schiff base tri-azo compounds were investigated for antibacterial potential. […] 6.25 μg/mL for 5b and 5g, and the least, Table 4 3.12 μg/mL was for 5f. […] Substituents with electron-withdrawing attributes, e.g., -NO2, -Cl, -OH on the aromatic ring, assert a great impact on the antibacterial activity of synthetic compounds. It is also observed that an increase in the number of -OH groups tend to enhance the activity ([Hosamani and Shingalapur, 2011]). Due to the difference in cell-wall composition of Gram + ve and -ve bacteria, different compounds show different features towards the same micro-organism ([Goszczyn’ska et al., 2015]).

[3] = test system: Streptomyces 85 E strains; assay: Protein kinase inhibition assay; assay type: cell-based; design: key: Active = Bacterial activity; --- = no activity; settings: Sample Concentration = 20 μg/mL; Surfactin B 20 μg/mL
Procedure: The protocol followed for this is mentioned ([Fatima et al., 2015]). To assess the test compound’s inhibitory potential, Streptomyces 85 E strains were used, which were refreshed in tryptone soya broth at 37 for 1 day. Spores from refreshed cultures were utilized to prepare the bacterial culture. 100 μg compound was loaded on 5 mm discs of filter paper. These were kept on sowed plates. DMSO-permeated discs were the -ve control. The incubation period was 7 days, and outcomes were stated as bald and clear zones of inhibition.
These synthetic products were evaluated to estimate the inhibitory potential for protein kinase of […] 85 E. Protein kinase is involved with the mycelium production of this species, so the growth patterns were observed as the bald zone. […] One of the propitious targets in cancer treatment is the inhibition of protein kinases. Protein phosphorylation by protein kinases at various residues regulates diverse biological processes, which may include apoptosis, proliferation and differentiation of cells. Deregulation at any step in early tumorigenesis may lead to cancer ([Yao et al., 2011]). Aerial hyphae formation in Streptomyces depends upon protein kinase activity; this scenario is exploited in this test; to inquire about these compounds’ kinase inhibition potential and to look at their anti-cancer potential. The advantage of using Streptomyces for kinase inhibition assay is its predisposition to a wide range of eukaryotic cells. Whole-cell assay of Streptomyces not only identifies the compound’s cytotoxic potential but also identifies signal transduction inhibitors for various activities, e.g., antitumor, anti-mycobacterial, and anti-infective ([Waters et al., 2002]). […] Activity with a bald zone of 10.5 mm and a clear zone of 7.5 mm, following is 5a with a bald zone of 9 mm and a clear zone of 6 mm, and for 5g, values are 7.5 and 6 mm, respectively. It means that these compounds have the potential for protein kinase inhibition as well as the toxicity of the compound.

[4] = test system: Staphylococcus aureus (ATCC-6538); assay: Antibacterial assay, micro broth dilution; assay type: cell-based; design: key: Active = Bacterial activity; --- = no activity; settings: 25 μg/mL
[5] = test system: Pseudomonas aeruginosa (ATCC-15442); assay: Antibacterial assay, micro broth dilution; assay type: cell-based; design: key: Active = Bacterial activity; --- = no activity; settings: 25 μg/mL
[6] = test system: Aspergillus fumigatus (FCBP-66); assay: Antifungal disc diffusion assay; assay type: cell-based; design: key to Zone of inhibition, A. fumigatus: --- = no anti-fungal activity; settings: 20 μg/disc
Procedure: The antifungal response to these chemical moieties was evaluated through a procedure designated by ([Zahra et al., 2017]). Amphotericin B (4 mg/mL DMSO) is used as + ve control and DMSO as-ve one (5 μL/disc). Sterile SDA-coated plates were used, on which 100 µL of suspension of spores for each strain (previously reaped-in-Tween-20 solution) was spread. Discs of sterile filter paper containing 5 µL of sample solution (4 mg/mL DMSO) were kept on plates and incubated for 2 days at 28°C. Zones of inhibition were recorded.
The Synthetic compound library was subjected to an antifungal assay using five different strains of Fungai, i.e., Fusarium solani (FCBP-0291), Aspergillus fumigatus (FCBP-66), Aspergillus flavus (FCBP-0064), Aspergillus niger (FCBP-0198) and Mucor species (FCBP-0300). Amphotericin B was the standard drug used. […] The outcomes are concise in Table 5.

[7] = test system: Pseudomonas aeruginosa (ATCC-15442); assay: Antibacterial assay, micro broth dilution; assay type: cell-based; settings: ATCC15442
Description: as §1, §2

| Structure (SMILES) | %DPPH inhibition (% free radical scavenging) [1] [%] | MIC [2] [µg/mL] | Clear zone [3] | Antibacterial activity, S. aureus: Activity [4] | Antibacterial activity, Pseudomonas aeruginosa: Activity [5] | Zone of inhibition, A. fumigatus [6] | MIC [7] [µg/mL] |
| --- | --- | --- | --- | --- | --- | --- | --- |
| O=[N+]([O-])c1ccc(C=Nn2c(Cc3c[nH]c4ccccc34)n[nH]c2=S)cc1 [Compound 5d] | 11.1 | 25 (≈ 66.1 µM) | --- | --- | --- | --- |  |
| S=c1[nH]nc(Cc2c[nH]c3ccccc23)n1N=Cc1ccc(Cl)cc1 [Compound 5c] | 11.1 | 25 (≈ 68 µM) | --- | --- | --- | --- |  |
| S=c1[nH]nc(Cc2c[nH]c3ccccc23)n1N=Cc1cccc(Cl)c1 [Compound 5f] |  |  | --- | Active | --- | --- |  |
| COc1cccc(C=Nn2c(Cc3c[nH]c4ccccc34)n[nH]c2=S)c1 [Compound 5b] | 32 |  | 7.5 mm | --- | Active | --- | 12.5 (≈ 34.4 µM) |
| Oc1ccc(C=Nn2c(Cc3c[nH]c4ccccc34)n[nH]c2=S)cc1 [Compound 5e] | 8.3 | 25 (≈ 71.5 µM) | --- | --- | Active | --- | 3.12 (≈ 8.93 µM) |
| Oc1cccc(C=Nn2c(Cc3c[nH]c4ccccc34)n[nH]c2=S)c1 [Compound 5a] |  |  | 6 mm |  | Active | --- | 12.5 (≈ 35.8 µM) |
| COc1cc(C=Nn2c(Cc3c[nH]c4ccccc34)n[nH]c2=S)cc(OC)c1OC [Compound 5g] |  |  |  | Active | --- | --- |  |
